Like-named read-outs stand apart in the source and are kept apart here.
Key:
XIAP BIR2-3 = biological target: T1, XIAP BIR2-3 (Homo sapiens, UniProt P98170, C202A/C213G); test: XIAP-BIR2-3 dimeric SMAC Peptide Homogeneous Time Resolved Fluorescence (HTRF) Assay; assay type: binding
T1 construct: His-BIR2-3 (125-356, C202A/C213G, XIAP)
Method: B. […] Assays were performed in black, flat-bottom, 384-well plates. […] Compounds were dissolved at 3 mM in dimethylsulfoxide (DMSO) and evaluated at eleven serially diluted concentrations. IC50 and Ki values were derived by non-linear regression analysis.

XIAP BIR3 = biological target: T2, XIAP BIR3 (Homo sapiens, UniProt P98170); test: XIAP-BIR3/SMAC Homogeneous Time Resolved Fluorescence (HTRF) Assay; assay type: binding
T2 construct: His-BIR3 (241-356, XIAP)
T2 sequence (P98170 241-356): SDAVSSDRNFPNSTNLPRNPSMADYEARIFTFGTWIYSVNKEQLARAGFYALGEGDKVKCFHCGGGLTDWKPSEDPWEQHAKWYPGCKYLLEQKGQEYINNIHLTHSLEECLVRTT
In short: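 Competition HTRF between XIAP-BIR3 and SMAC; reaction 60 min at room temperature, then anti-6×His-terbium Fab detection for a further 30 min.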

[1] = 0.5 nM N-His-BIR2-3 (125-356, C202A/C213G, XIAP), 20 nM fluorescein labeled dimeric SMAC peptide, HTRF signal, read-out: XIAP BIR2-3 IC50
[2] = 1 nM N-His-BIR3 (241-356, XIAP), 5 nM fluorescein labeled SMAC peptide, HTRF signal, read-out: XIAP BIR3 IC50

T1 sequence (P98170 125-356 C202A/C213G): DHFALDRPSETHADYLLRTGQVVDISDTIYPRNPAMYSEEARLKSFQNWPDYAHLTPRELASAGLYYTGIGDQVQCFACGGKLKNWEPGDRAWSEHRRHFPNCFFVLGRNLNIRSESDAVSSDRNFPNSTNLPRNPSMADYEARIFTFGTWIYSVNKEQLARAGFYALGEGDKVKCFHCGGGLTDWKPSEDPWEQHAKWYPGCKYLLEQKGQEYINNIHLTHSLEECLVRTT

Q: How did the IC50 (XIAP BIR2-3) turn out when `CCN(CC)C(=O)[C@H](Cc1ccccc1)NC(=O)[C@@H]1C[C@H](c2ccc3c(c2)CN(C(=O)[C@@H](NC(=O)[C@H](C)NC)C(C)(C)C)[C@H](C(=O)N[C@@H]2CCCc4ccccc42)C3)CN1C(=O)[C@@H](NC(=O)[C@H](C)NC)C(C)(C)C` [Example 62, (S)-7-((3R,5S)-5-(((S)-1-(Diethylamino)-1-oxo-3-phenylpropan-2-yl)carbamoyl)-1-((S)-3,3-dimethyl-2-((S)-2-(methylamino)propanamido)butanoyl)pyrrolidin-3-yl)-2-((S)-3,3-dimethyl-2-((S)-2-(methylamino)propanamido)butanoyl)-N-((R)-1,2,3,4-tetrahydronaphthalen-1-yl)-1,2,3,4-tetrahydroisoquinoline-3-carboxamide] was run?
A: 1.9 nM

Q: And the IC50 (XIAP BIR3)?
A: 9.2 nM

Q: What does the source list for `CN[C@@H](C)C(=O)N[C@H](C(=O)N1C[C@@H](c2ccc3c(c2)CN(C(=O)[C@@H](NC(=O)[C@H](C)NC)C(C)(C)C)[C@H](C(=O)N[C@@H]2CCCc4ccccc42)C3)C[C@H]1C(=O)N[C@@H](Cc1ccccc1)C(=O)N(C1CC1)C1CC1)C(C)(C)C` [Example 63, (S)-7-((3R,5S)-5-(((S)-1-(Dicyclopropylamino)-1-oxo-3-phenylpropan-2-yl)carbamoyl)-1-((S)-3,3-dimethyl-2-((S)-2-(methylamino)propanamido)butanoyl)pyrrolidin-3-yl)-2-((S)-3,3-dimethyl-2-((S)-2-(methylamino)propanamido)butanoyl)-N-((R)-1,2,3,4-tetrahydronaphthalen-1-yl)-1,2,3,4-tetrahydroisoquinoline-3-carboxamide]?
A: IC50 (XIAP BIR2-3; [1]): 3 nM; IC50 (XIAP BIR3; [2]): 16.7 nM

Q: Which results are given for `CN[C@@H](C)C(=O)N[C@H](C(=O)N1C[C@@H](c2ccc3c(c2)CN(C(=O)[C@@H](NC(=O)[C@H](C)NC)C(C)(C)C)[C@H](C(=O)N[C@@H]2CCCc4ccccc42)C3)C[C@H]1C(=O)N[C@@H](Cc1ccccc1)C(=O)NC1CC1)C(C)(C)C` [Example 64, (S)-7-((3R,5S)-5-(((S)-1-(Cyclopropylamino)-1-oxo-3-phenylpropan-2-yl)carbamoyl)-1-((S)-3,3-dimethyl-2-((S)-2-(methylamino)propanamido)butanoyl)pyrrolidin-3-yl)-2-((S)-3,3-dimethyl-2-((S)-2-(methylamino)propanamido)butanoyl)-N-((R)-1,2,3,4-tetrahydronaphthalen-1-yl)-1,2,3,4-tetrahydroisoquinoline-3-carboxamide]?
A: IC50 (XIAP BIR2-3; [1]): 3.8 nM; IC50 (XIAP BIR3; [2]): 25.6 nM

Q: For `CN[C@@H](C)C(=O)N[C@H](C(=O)N1C[C@@H](c2ccc3c(c2)CN(C(=O)[C@@H](NC(=O)[C@H](C)NC)C(C)(C)C)[C@H](C(=O)N[C@@H]2CCCc4ccccc42)C3)C[C@H]1C(=O)N[C@@H](Cc1ccccc1)C(=O)Nc1ccc(-n2cncn2)cc1)C(C)(C)C` [Example 65, (S)-7-((3R,5S)-5-(((S)-1-((4-(1H-1,2,4-Triazol-1-yl)phenyl)amino)-1-oxo-3-phenylpropan-2-yl)carbamoyl)-1-((S)-3,3-dimethyl-2-((S)-2-(methylamino)propanamido)butanoyl)pyrrolidin-3-yl)-2-((S)-3,3-dimethyl-2-((S)-2-(methylamino)propanamido)butanoyl)-N-((R)-1,2,3,4-tetrahydronaphthalen-1-yl)-1,2,3,4-tetrahydroisoquinoline-3-carboxamide], which IC50 (XIAP BIR2-3; [1]) is on record?
A: 1.6 nM

Q: What about the IC50 (XIAP BIR3; [2]) of the same molecule?
A: 5.4 nM

Q: For `CN[C@@H](C)C(=O)N[C@H](C(=O)N1C[C@@H](c2ccc3c(c2)CN(C(=O)[C@@H](NC(=O)[C@H](C)NC)C(C)(C)C)[C@H](C(=O)N[C@@H]2CCCc4ccccc42)C3)C[C@H]1C(=O)N[C@@H](Cc1ccccc1)C(=O)NCCc1ccccc1)C(C)(C)C` [Example 66, (S)-2-((S)-3,3-Dimethyl-2-((S)-2-(methylamino)propanamido)butanoyl)-7-((3R,5S)-1-((S)-3,3-dimethyl-2-((S)-2-(methylamino)propanamido)butanoyl)-5-(((S)-1-oxo-1-(phenethylamino)-3-phenylpropan-2-yl)carbamoyl)pyrrolidin-3-yl)-N-((R)-1,2,3,4-tetrahydronaphthalen-1-yl)-1,2,3,4-tetrahydroisoquinoline-3-carboxamide], which IC50 (XIAP BIR2-3) is on record?
A: 3.1 nM

Q: What about the IC50 (XIAP BIR3) of the same molecule?
A: 13.3 nM

Reference: US8889712B2, “IAP antagonists” (Bristol-Myers Squibb Company, priority 2012, dated 2014)
